Activity calls are given as the source filed them. The calls are words filed in the database; no cut-off is given here.
Experiments:
[1] = molecular target: T1, Cytochrome P450 2C8 (Homo sapiens, UniProt P10632); assay: Inhibition of CYP2C8 in human liver microsomes incubated for 5 mins in presence of NADPH by LC-MS/MS analysis; assay type: ADME, Microsome
T1 sequence (P10632 whole entry): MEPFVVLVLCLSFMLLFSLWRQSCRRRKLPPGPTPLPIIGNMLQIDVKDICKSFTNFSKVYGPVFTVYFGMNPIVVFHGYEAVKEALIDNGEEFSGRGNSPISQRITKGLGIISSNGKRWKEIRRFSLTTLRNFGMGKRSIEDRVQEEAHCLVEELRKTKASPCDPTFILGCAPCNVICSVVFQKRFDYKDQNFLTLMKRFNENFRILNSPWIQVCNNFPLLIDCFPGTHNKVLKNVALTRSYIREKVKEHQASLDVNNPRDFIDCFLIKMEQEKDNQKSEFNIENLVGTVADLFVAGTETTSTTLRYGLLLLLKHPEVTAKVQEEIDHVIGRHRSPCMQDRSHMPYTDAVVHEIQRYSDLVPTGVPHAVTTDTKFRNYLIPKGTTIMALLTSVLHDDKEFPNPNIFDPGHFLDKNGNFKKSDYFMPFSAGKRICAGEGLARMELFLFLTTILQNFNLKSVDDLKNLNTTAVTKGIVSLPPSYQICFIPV

[2] = Oral bioavailability in dog at 3 mg/kg measured upto 24 hrs by LC-MS/MS analysis; assay type: ADME, organism-based, Canis lupus familiaris; details: in vivo
[3] = molecular target: T2, Protein cereblon/Estrogen receptor (Homo sapiens, UniProt P03372+Q96SW2); assay: In-vivo PROTAC activity at CRBN/ERalpha in SCID mouse xenografted with human MCF7 cells assessed as reduction in ERalpha level in tumor at 10 mg/kg, po administered daily for 3 days and measured after 6 hrs by Western blot analysis; assay type: functional, organism-based; design: scale not given: the % may be the effect or the level left; details: time 78.0 hrs
T2 sequence (P03372 whole entry, looked up): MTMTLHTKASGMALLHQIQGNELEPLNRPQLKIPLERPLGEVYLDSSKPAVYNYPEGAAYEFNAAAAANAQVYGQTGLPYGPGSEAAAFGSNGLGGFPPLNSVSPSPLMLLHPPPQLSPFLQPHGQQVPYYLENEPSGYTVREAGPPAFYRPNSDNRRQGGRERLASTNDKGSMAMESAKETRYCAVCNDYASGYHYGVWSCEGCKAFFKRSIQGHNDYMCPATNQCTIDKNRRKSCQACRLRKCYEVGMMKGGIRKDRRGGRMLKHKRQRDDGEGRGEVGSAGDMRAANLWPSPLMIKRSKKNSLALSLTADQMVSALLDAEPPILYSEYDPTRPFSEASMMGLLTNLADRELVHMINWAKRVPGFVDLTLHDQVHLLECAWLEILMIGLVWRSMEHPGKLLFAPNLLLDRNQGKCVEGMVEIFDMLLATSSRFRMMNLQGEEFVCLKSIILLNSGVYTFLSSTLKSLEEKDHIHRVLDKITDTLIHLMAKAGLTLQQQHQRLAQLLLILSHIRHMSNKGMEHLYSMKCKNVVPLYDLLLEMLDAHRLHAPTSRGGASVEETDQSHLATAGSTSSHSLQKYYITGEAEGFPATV
T2 sequence (Q96SW2 whole entry, looked up): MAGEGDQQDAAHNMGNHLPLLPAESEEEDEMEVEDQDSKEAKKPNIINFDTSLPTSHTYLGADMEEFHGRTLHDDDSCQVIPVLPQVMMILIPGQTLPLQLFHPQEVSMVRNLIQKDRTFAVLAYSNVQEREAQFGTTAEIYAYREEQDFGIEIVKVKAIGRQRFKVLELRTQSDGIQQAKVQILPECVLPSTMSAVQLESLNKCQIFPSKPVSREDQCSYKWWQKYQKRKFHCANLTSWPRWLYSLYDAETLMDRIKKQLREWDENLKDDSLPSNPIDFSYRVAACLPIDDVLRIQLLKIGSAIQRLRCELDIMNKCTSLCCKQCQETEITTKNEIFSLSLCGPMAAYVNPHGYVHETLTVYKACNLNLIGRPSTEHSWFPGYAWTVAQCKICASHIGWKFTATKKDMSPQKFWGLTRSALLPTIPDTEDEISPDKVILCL

[4] = Drug concentration in SCID mouse tumor at 10 mg/kg, po administered once daily measured at 24 hrs by LC-MS/MS analysis; assay type: ADME, organism-based, Neoplasm; details: read-out: Ct
[5] = Drug concentration in SCID mouse tumor at 30 mg/kg, po administered daily for 3 days and measured after 24 hrs by LC-MS/MS analysis; assay type: ADME, organism-based, Neoplasm; details: read-out: Ct
[6] = test system: MCF7; assay: Antitumor activity against human MCF7 cells xenografted in SCID mouse assessed as tumor growth inhibition at 3 mg/kg, po administered for 41 to 76 days; assay type: functional; details: time 41-76 day, read-out: TGI
[7] = molecular target: T2, Protein cereblon/Estrogen receptor; assay: PROTAC activity at CRBN/wild type ERalpha in human T47D cells assessed as reduction in ERalpha protein level at 10 to 100 nM measured at 7 hrs by Western blot analysis; assay type: cell-based; details: dose 10-100 nM
[8] = molecular target: T2, Protein cereblon/Estrogen receptor; assay: PROTAC activity at CRBN/ERalpha in human MCF7 cells assessed as reduction in ERalpha protein level at 0.3 nM measured at 4 hrs by Western blot analysis; assay type: cell-based
[9] = Metabolic stability mouse liver microsome assessed as half life; assay type: ADME; details: microsomes
[10] = molecular target: T2, Protein cereblon/Estrogen receptor; assay: PROTAC activity at CRBN/ERalpha in human MCF7 cells assessed as reduction in ERalpha protein level at 5 nM measured for 4 hrs in presence of MLN-4924 by Western blot analysis; assay type: cell-based
[11] = Oral bioavailability in mouse at 3 mg/kg measured upto 24 hrs by LC-MS/MS analysis; assay type: ADME, organism-based; details: in vivo
[12] = molecular target: T2, Protein cereblon/Estrogen receptor; assay: PROTAC activity at CRBN/ERalpha in human MCF7 cells assessed as reduction in ERalpha protein level at 5 nM measured for 4 hrs by Western blot analysis; assay type: cell-based
[13] = Drug concentration in SCID mouse plasma at 10 mg/kg, po administered daily for 3 days and measured after 6 hrs by LC-MS/MS analysis; assay type: ADME, organism-based
[14] = molecular target: Cytochrome P450 2C19 (Homo sapiens, UniProt P33261); assay: Inhibition of CYP2C19 in human liver microsomes incubated for 5 mins in presence of NADPH by LC-MS/MS analysis; assay type: ADME, Microsome
Cytochrome P450 2C19, sequence (P33261 whole entry): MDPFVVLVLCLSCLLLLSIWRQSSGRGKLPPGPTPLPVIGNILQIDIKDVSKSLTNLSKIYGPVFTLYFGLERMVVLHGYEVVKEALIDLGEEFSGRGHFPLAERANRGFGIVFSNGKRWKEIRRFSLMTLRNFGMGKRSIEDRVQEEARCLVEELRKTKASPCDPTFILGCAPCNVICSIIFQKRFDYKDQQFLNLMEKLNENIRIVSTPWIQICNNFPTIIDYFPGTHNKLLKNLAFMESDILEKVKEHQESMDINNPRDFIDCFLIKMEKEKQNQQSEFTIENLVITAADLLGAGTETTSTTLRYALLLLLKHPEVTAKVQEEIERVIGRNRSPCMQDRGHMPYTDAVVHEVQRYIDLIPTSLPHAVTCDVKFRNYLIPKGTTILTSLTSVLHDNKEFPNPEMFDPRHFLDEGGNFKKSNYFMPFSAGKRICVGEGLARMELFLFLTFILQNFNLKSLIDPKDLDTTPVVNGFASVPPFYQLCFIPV

[15] = molecular target: T2, Protein cereblon/Estrogen receptor; assay: In-vivo PROTAC activity at CRBN/ERalpha in SCID mouse xenografted with human MCF7 cells assessed as reduction in ERalpha level in tumor at 30 mg/kg, po administered daily for 3 days and measured after 24 hrs by Western blot analysis; assay type: functional, organism-based; design: scale not given: the % may be the effect or the level left; details: time 96.0 hrs
[16] = test system: T47D; assay: PROTAC activity at CRBN/ ERalpha D538G mutant in human T47D cells assessed as reduction in ERalpha protein level at 10 to 100 nM measured at 7 hrs by Western blot analysis; assay type: cell-based; design: scale not given: the % may be the effect or the level left; details: dose 10-100 nM

In the case of O=C1CC[C@H](N2Cc3c(ccc4c3OCC43CCN(C[C@@H]4CCC5(CCN(c6ccc([C@@H]7c8ccc(O)cc8CC[C@@H]7c7ccccc7)cc6)CC5)OC4)CC3)C2=O)C(=O)N1, the IC50 [1] is reported as > 10 µM, the F [2] is reported as 49% and the Activity [3] is reported as 66%. The concentration at 24 h [4] was 94 ng/mL, the concentration at 96 h [5] was 1090 ng/mL and the inhibition in vivo at 3 mg/kg [6] was 93%. The Activity [7] was “Active”, the Activity [8] was “Active” and the t1/2 [9] was > 1 h. The Activity [10] was “inactive”, the F [11] was 37% and the Activity [12] was “Active”. For the same molecule, the concentration at 78 h [13] was 380 ng/mL, the IC50 [14] was 6 µM and the Activity [15] was 29%. For the same molecule, the Activity [16] was > 80%.
